Results on ten molecules are retold here after US20090119801A1, “Method for preserving cut flowers, cut flower preservation kit, method for manufacturing processed cut flowers, and processed cut flowers” (SUNTORY FLOWERS LIMITED, priority 2007, published 2009).

Each structure is given as a SMILES string.

One data set can be described thus: Volatilization rate of organic solvents (Table 2).
Conditions: not given
The format is physicochemical.
On to `OCC(O)CO` [glycerin], for which the “volatilization rate (%)” value was determined as 0%.
On the same count and under the same terms, then `CCCCC(CC)COCCO` (stereo not shown) [2-(2-ethylhexyloxy)ethanol], with 1%; and `CC(O)CC(C)(C)O` (stereo not shown) [2-methyl-2,4-pentanediol], with 3%; and `CCCCC(CC)COCCOCCO` (stereo not shown) [2-[2-(2-ethylhexyloxy)ethoxy]ethanol], with 0%.
Consider `CC(CCO)CCO` [3-methyl-1,5-pentanediol], for which the “volatilization rate (%)” value came out at 0%.
Still for that read-out and setting: the same measure for `CCCC(O)C(CC)CO` (stereo not shown) [2-ethyl-1,3-hexanediol]: 0%.
`OCCO` [ethylene glycol]: the “volatilization rate (%)” value turned out to be 0%.

Experiment in another data set: not given
The following applies: logP; cited from earlier work.
Take `CO` [Methanol]: the partition coefficient was −0.719.
`CC(C)=O` [acetone]: the partition coefficient is recorded as −0.157.
Consider `C1COCCO1` [1,4-dioxane], for which the partition coefficient is −0.271.
